From ChEMBL document CHEMBL1150196, “Isolation and structure of cytostatic steroidal saponins from the African medicinal plant Balanites aegyptica” (1991)
Converted amounts (≈) assume the structure as drawn.

What follows are compounds tested on P388 (assay: Cytotoxicity against mouse P388 cells). Conditions: read-out: ED50 (the source's name).
Type: functional

| Structure (SMILES) | EC50 [µg/mL] |
| --- | --- |
| C[C@H]1CC[C@@]2(OC1)O[C@H]1C[C@H]3[C@@H]4CC=C5C[C@@H](O[C@@H]6O[C@H](CO)[C@@H](O[C@@H]7O[C@H](CO)[C@@H](O)[C@H](O)[C@H]7O)[C@H](O)[C@H]6O[C@@H]6O[C@@H](C)[C@H](O)[C@@H](O)[C@H]6O)CC[C@]5(C)[C@H]4CC[C@]3(C)[C@H]1[C@@H]2C [BALANITIN 6] | 0.21 (≈ 0.237 µM) |
| C[C@H]1CC[C@@]2(OC1)O[C@H]1C[C@H]3[C@@H]4CC=C5C[C@@H](O[C@@H]6O[C@H](CO)[C@@H](O[C@@H]7O[C@H](CO)[C@@H](O)[C@H](O[C@@H]8O[C@@H](C)[C@H](O)[C@@H](O)[C@H]8O)[C@H]7O)[C@H](O)[C@H]6O[C@@H]6O[C@@H](C)[C@H](O)[C@@H](O)[C@H]6O)CC[C@]5(C)[C@H]4CC[C@]3(C)[C@H]1[C@@H]2C [BALANITIN 5] | 2.4 (≈ 2.33 µM) |
| O=c1[nH]cc(F)c(=O)[nH]1 [FLUOROURACIL] | 0.08 (≈ 0.615 µM) |
| C[C@H]1CC[C@@]2(OC1)O[C@H]1C[C@H]3[C@@H]4CC=C5C[C@@H](O[C@@H]6O[C@H](CO)[C@@H](O[C@@H]7O[C@H](CO)[C@@H](O)[C@H](O[C@@H]8O[C@H](CO)[C@@H](O)[C@H](O)[C@H]8O)[C@H]7O)[C@H](O)[C@H]6O[C@@H]6O[C@@H](C)[C@H](O)[C@@H](O)[C@H]6O)CC[C@]5(C)[C@H]4CC[C@]3(C)[C@H]1[C@@H]2C [BALANITIN 4] | 0.41 (≈ 0.392 µM) |
| C[C@H]1CC[C@@]2(OC1)O[C@H]1C[C@H]3[C@@H]4CC=C5C[C@@H](O[C@@H]6O[C@H](CO)[C@@H](O[C@@H]7O[C@H](CO)[C@@H](O)[C@H](O[C@@H]8OC[C@@H](O)[C@H](O)[C@H]8O)[C@H]7O)[C@H](O)[C@H]6O[C@@H]6O[C@@H](C)[C@H](O)[C@@H](O)[C@H]6O)CC[C@]5(C)[C@H]4CC[C@]3(C)[C@H]1[C@@H]2C [BALANITIN 7] | 0.22 (≈ 0.216 µM) |
